Laboratory results as given in patent publication US20160257697A1, “THIOPHENE-SUBSTITUTED TETRACYCLIC COMPOUNDS AND METHODS OFUSE THEREOF FOR THE TREATMENT OF VIRAL DISEASES” (priority 2013, published 2016).
Like-named read-outs stand apart in the source and are kept apart here.

Legend:
Experiment in all cases: microbe, parasite or virus in culture
Assay type in all cases: cell-based, Hepatitis C virus (HCV)
HCV replicon 1AY93H = settings: Replicon Assay A
In short: (§1)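 Read-out is replicon RNA per cell by real-time RT-PCR, normalised to cyclophilin mRNA amplified in the same well. Cells were exposed to compound for 3 days at 2000 cells/well in medium with 5% fetal bovine serum and 0.5% DMSO.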

HCV replicon 1A = settings: Replicon Assay A
In short: as §1

HCV replicon 2B = settings: Replicon Assay A
In short: as §1

HCV replicon 1AQ30D = settings: Replicon Assay B
HCV replicon 1B = settings: Replicon Assay B
[1] = read-out: 1A Y93H IC50, HCV replicon 1A Y93H
[2] = read-out: 2B IC50, HCV replicon 2B
[3] = Hepatitis C virus, read-out: 1A Q30D IC50, HCV replicon 1A Q30D
[4] = Hepatitis C virus, HCV replicon 1B
[5] = read-out: 1A Y93H IC50, replicon 1AY93H
[6] = read-out: 1A Q30D IC50, replicon 1AQ30D
[7] = read-out: 1A Q30D IC50, HCV replicon 1A Q30D
[8] = Hepatitis C virus, read-out: 1A Y93H IC50 (nM), replicon 1AY93H
[9] = Hepatitis C virus, read-out: 2B IC50 (nM), replicon 2B
[10] = Hepatitis C virus, read-out: 1A Q30D IC50 (nM), replicon 1AQ30D

Structure (SMILES)	IC50 (HCV replicon 1AY93H; [1]) [nM]	IC50 (HCV replicon 1A; HCV replicon 1A) [pM]	IC50 (HCV replicon 2B; [2]) [nM]	IC50 (HCV replicon 1AY93H; [5]) [nM]	IC50 (HCV replicon 1A; replicon 1A) [pM]	IC50 (HCV replicon 2B; read-out: 2B IC50, replicon 2B) [nM]	IC50 (HCV replicon 1AQ30D; [6]) [nM]	IC50 (HCV replicon 1B; replicon 1B) [pM]	further results
COC(=O)NC(C(=O)N1CCC[C@H]1c1ncc(-c2ccc3c(c2)cc2n3C(c3ccc(C4CC4)s3)Oc3cc(-c4cnc([C@@H]5C[C@H]6C[C@H]6N5C(=O)[C@@H](NC(=O)OC)C(C)C)[nH]4)cc(F)c3-2)[nH]1)C1C[C@@H](C)O[C@@H](C)C1 (single isomer, unassigned) [Compound 538]	0.00703	4.7	0.0513	–	–	–	–	–	IC50 (HCV replicon 1AQ30D; [3]): 0.136 nM; IC50 (HCV replicon 1B; [4]): 3.26 pM
COC(=O)N[C@H](C(=O)N1CCC[C@H]1c1ncc(-c2cc(F)c3c(c2)OC(c2ccc(CC4CC4)s2)n2c-3cc3cc(-c4cnc([C@@H]5CCCN5C(=O)[C@@H](NC(=O)OC)C5CCOCC5)[nH]4)ccc32)[nH]1)C(C)C (single isomer, unassigned) [Compound 357]	–	–	–	0.0041	2.1	0.0026	0.0165	3	–
COC(=O)N[C@H](C(=O)N1CCC[C@H]1c1ncc(-c2cc(F)c3c(c2)OC(c2ccc(CC(C)(C)OC)s2)n2c-3cc3cc(-c4cnc([C@@H]5CCCN5C(=O)[C@@H](NC(=O)OC)C(C)C)[nH]4)ccc32)[nH]1)C(C)C (single isomer, unassigned) [Compound 844]	–	2.2	–	–	–	–	–	–	IC50 (HCV replicon 1AY93H; HCV replicon 1A Y93H, read-out: 1A Y93H IC50): 0.023 nM; IC50 (HCV replicon 2B; HCV replicon 2B, read-out: 2B IC50): 0.213 nM; IC50 (HCV replicon 1AQ30D; HCV replicon 1A Q30D, read-out: 1A Q30D IC50): 0.239 nM; IC50 (HCV replicon 1B; HCV replicon 1B): 2.6 pM
CCc1ccc(C2Oc3cc(-c4cnc([C@@H]5CCCN5C(=O)C(NC(=O)OC)C5CCOC(C)(C)C5)[nH]4)cc(F)c3-c3cc4cc(-c5cnc([C@@H]6CCCN6C(=O)[C@@H](NC(=O)OC)C(C)C)[nH]5)ccc4n32)s1 (single isomer, unassigned) [Compound 162]	–	–	–	0.004	2.2	0.006	0.027	1.9	–
COC(=O)NC(C(=O)N1CCC[C@H]1c1ncc(-c2cc(F)c3c(c2)OC(c2ccc(C4CC4)s2)n2c-3cc3cc(-c4cnc([C@@H]5CCCN5C(=O)[C@@H](NC(=O)OC)C(C)C)[nH]4)ccc32)[nH]1)C1CCOC(C)(C)C1 (single isomer, unassigned) [Compound 216]	–	–	–	0.18	1.7	0.31	1.03	3.3	–
COC(=O)N[C@H](C(=O)N1CCC[C@H]1c1ncc(-c2ccc3c(c2)OC(c2ccc(C4CC4)s2)n2c-3c(F)c3cc(-c4cnc([C@@H]5C[C@H]6C[C@H]6N5C(=O)[C@@H](NC(=O)OC)C(C)C)[nH]4)ccc32)[nH]1)C(C)C (single isomer, unassigned) [Compound 613]	0.0157	2.5	0.342	–	–	–	–	–	IC50 (HCV replicon 1AQ30D; [7]): 0.992 nM; IC50 (HCV replicon 1B; HCV replicon 1B): 2.3 pM
COC(=O)NC(C(=O)N1CCC[C@H]1c1ncc(-c2ccc3c(c2)cc2n3C(c3ccc(C4CC4)s3)Oc3cc(-c4cnc([C@@H]5CCCN5C(=O)[C@@H](NC(=O)OC)C(C)C)[nH]4)cc(F)c3-2)[nH]1)C1C[C@@H](C)O[C@@H](C)C1 (single isomer, unassigned) [Compound 206]	–	–	–	–	–	–	–	–	IC50 (HCV replicon 1AY93H; [8]): 0.16 nM; IC50 (HCV replicon 1A; Hepatitis C virus, replicon 1A): 1.4 pM; IC50 (HCV replicon 2B; [9]): 0.16 nM; IC50 (HCV replicon 1AQ30D; [10]): 2.91 nM; IC50 (HCV replicon 1B; Hepatitis C virus, replicon 1B): 2.6 pM
COC(=O)N[C@H](C(=O)N1C2CC2C[C@H]1c1ncc(-c2cc(F)c3c(c2)OC(c2ccc(C4CC4)s2)n2c-3cc3cc(-c4cnc([C@@H]5CCCN5C(=O)[C@@H](NC(=O)OC)C5C[C@@H](C)O[C@@H](C)C5)[nH]4)ccc32)[nH]1)C(C)C (single isomer, unassigned) [Compound 554]	0.237	26.8	0.203	–	–	–	–	–	IC50 (HCV replicon 1AQ30D; [7]): 1.67 nM; IC50 (HCV replicon 1B; HCV replicon 1B): 22.6 pM
COC(=O)NC(C(=O)N1CCC[C@H]1c1ncc(-c2cc(F)c3c(c2)OC(c2ccc(C)s2)n2c-3cc3cc(-c4cnc([C@@H]5CCCN5C(=O)[C@@H](NC(=O)OC)C5CCOCC5)[nH]4)ccc32)[nH]1)C(C)(C)F (single isomer, unassigned) [Compound 108]	–	–	–	0.25	2.6	0.29	1.15	2.7	–
COC(=O)NC(C(=O)N1CCC[C@H]1c1ncc(-c2ccc3c(c2)cc2n3C(c3ccc(C4CC4)s3)Oc3cc(-c4cnc([C@@H]5CCCN5C(=O)[C@@H](NC(=O)OC)C(C)C)[nH]4)cc(F)c3-2)[nH]1)C1CCOC(C)(C)C1 (stereo partly shown) [Compound 219]	–	–	–	0.003	2.2	0.005	0.034	3.2	–
COC(=O)NC(C(=O)N1[C@@H]2C[C@@H]2C[C@H]1c1ncc(-c2ccc3c(c2)cc2n3C(c3ccc(CC4CC4)s3)Oc3cc(-c4cnc([C@@H]5CCCN5C(=O)[C@@H](NC(=O)OC)C(C)C)[nH]4)cc(F)c3-2)[nH]1)C1CCOC(C)(C)C1 (single isomer, unassigned) [Compound 419]	0.0072	7.2	0.0132	–	–	–	–	–	IC50 (HCV replicon 1AQ30D; [7]): 0.0916 nM; IC50 (HCV replicon 1B; HCV replicon 1B): 8.3 pM
CCc1ccc(C2Oc3cc(-c4cnc([C@@H]5CCCN5C(=O)C(NC(=O)OC)C5C[C@@H](C)O[C@@H](C)C5)[nH]4)cc(F)c3-c3cc4cc(-c5cnc([C@@H]6CCCN6C(=O)C(NC(=O)OC)C6C[C@@H](C)O[C@@H](C)C6)[nH]5)ccc4n32)s1 (single isomer, unassigned) [Compound 300]	–	–	–	0.002	2.4	0.003	–	–	IC50 (HCV replicon 1AQ30D; [10]): 0.006 nM; IC50 (HCV replicon 1B; Hepatitis C virus, replicon 1B): 3.2 pM
COC(=O)N[C@H](C(=O)N1CCC[C@H]1c1nc(-c2cc(F)c3c(c2)OC(c2ccc(C4CC4)s2)n2c-3cc3cc(-c4c[nH]c([C@@H]5C[C@H]6C[C@H]6N5C(=O)[C@@H](NC(=O)OC)C(C)C)n4)ccc32)c[nH]1)C(C)C (single isomer, unassigned) [Compound 721]	0.0045	1.5	0.05	–	–	–	–	–	IC50 (HCV replicon 1AQ30D; [3]): 0.17 nM; IC50 (HCV replicon 1B; [4]): 1.5 pM
COC(=O)NC(C(=O)N1CCC[C@H]1c1ncc(-c2ccc3c(c2)cc2n3C(c3ccc(CC(F)(F)F)s3)Oc3cc(-c4cnc([C@@H]5CCCN5C(=O)[C@@H](NC(=O)OC)C(C)C)[nH]4)cc(F)c3-2)[nH]1)C1C[C@@H](C)O[C@@H](C)C1 (single isomer, unassigned) [Compound 382]	–	–	–	–	1.7	–	–	2.5	IC50 (HCV replicon 1AY93H; replicon 1AY93H, read-out: 1A Y93H IC50): 0.0034 nM; IC50 (HCV replicon 2B; replicon 2B, read-out: 2B IC50): 0.008 nM; IC50 (HCV replicon 1AQ30D; replicon 1AQ30D, read-out: 1A Q30D IC50): 0.0229 nM
COC(=O)NC(C(=O)N1[C@@H]2C[C@@H]2C[C@H]1c1ncc(-c2ccc3c(c2)cc2n3C(c3ccc(C4CC4)s3)Oc3cc(-c4cnc([C@@H]5CCCN5C(=O)[C@@H](NC(=O)OC)C(C)C)[nH]4)cc(F)c3-2)[nH]1)C1C[C@@H](C)O[C@@H](C)C1 (single isomer, unassigned) [Compound 272]	–	–	–	1	2.7	2.75	2.39	3.3	–
COC(=O)N[C@H](C(=O)N1CCC[C@H]1c1ncc(-c2cc(F)c3c(c2)OC(c2cc4ccccc4s2)n2c-3cc3cc(-c4cnc([C@@H]5C[C@H]6C[C@H]6N5C(=O)[C@@H](NC(=O)OC)C(C)C)[nH]4)ccc32)[nH]1)C(C)C (single isomer, unassigned) [Compound 615]	0.045	2.3	1.08	–	–	–	–	–	IC50 (HCV replicon 1AQ30D; [3]): 0.844 nM; IC50 (HCV replicon 1B; [4]): 1.9 pM
COC(=O)NC(C(=O)N1CCC[C@H]1c1ncc(-c2ccc3c(c2)cc2n3C(c3ccc(C4CC4)s3)Oc3cc(-c4cnc([C@@H]5CCCN5C(=O)C(NC(=O)OC)C(C)(C)F)[nH]4)cc(F)c3-2)[nH]1)C1C[C@@H](C)O[C@@H](C)C1 (single isomer, unassigned) [Compound 379]	–	–	–	–	–	–	–	–	IC50 (HCV replicon 1AY93H; [8]): 0.0803 nM; IC50 (HCV replicon 1A; Hepatitis C virus, replicon 1A): 2.2 pM; IC50 (HCV replicon 2B; [9]): 0.178 nM; IC50 (HCV replicon 1AQ30D; [10]): 0.798 nM; IC50 (HCV replicon 1B; Hepatitis C virus, replicon 1B): 1.1 pM
CCc1ccc(C2Oc3cc(-c4cnc([C@@H]5CCCN5C(=O)[C@@H](NC(=O)OC)C(C)C)[nH]4)ccc3-c3c(F)c4cc(-c5cnc([C@@H]6CCCN6C(=O)[C@@H](NC(=O)OC)C(C)C)[nH]5)ccc4n32)s1 (single isomer, unassigned) [Compound 602]	0.066	1	0.143	–	–	–	–	–	IC50 (HCV replicon 1AQ30D; [3]): 0.597 nM; IC50 (HCV replicon 1B; [4]): 1.7 pM
COC(=O)NC(C(=O)N1CCC[C@H]1c1ncc(-c2cc(F)c3c(c2)OC(c2ccc(C4CC4)s2)n2c-3cc3cc(-c4cnc([C@@H]5CCCN5C(=O)[C@@H](NC(=O)OC)C(C)C)[nH]4)ccc32)[nH]1)C1C[C@@H](C)O[C@@H](C)C1 (single isomer, unassigned) [Compound 189]	–	–	–	0.26	1.3	0.48	1.42	1.8	–
COC(=O)NC(C(=O)N1CCC[C@H]1c1ncc(-c2cc(F)c3c(c2)OC(c2ccc(C4CC4)s2)n2c-3cc3cc(-c4cnc([C@@H]5CCCN5C(=O)C(NC(=O)OC)C(C)(C)F)[nH]4)ccc32)[nH]1)C(C)(C)F (single isomer, unassigned) [Compound 111]	–	–	–	0.074	3.2	0.038	–	–	IC50 (HCV replicon 1AQ30D; [10]): 0.13 nM; IC50 (HCV replicon 1B; Hepatitis C virus, replicon 1B): 1.7 pM
